Source: BindingDB's records for doi:10.1016/j.bmcl.2015.12.052 (Janssen Research and Development, 2016)

Target: T1, P2X purinoceptor 7 (Rattus norvegicus, UniProt Q64663)
T1 sequence (Q64663 whole entry): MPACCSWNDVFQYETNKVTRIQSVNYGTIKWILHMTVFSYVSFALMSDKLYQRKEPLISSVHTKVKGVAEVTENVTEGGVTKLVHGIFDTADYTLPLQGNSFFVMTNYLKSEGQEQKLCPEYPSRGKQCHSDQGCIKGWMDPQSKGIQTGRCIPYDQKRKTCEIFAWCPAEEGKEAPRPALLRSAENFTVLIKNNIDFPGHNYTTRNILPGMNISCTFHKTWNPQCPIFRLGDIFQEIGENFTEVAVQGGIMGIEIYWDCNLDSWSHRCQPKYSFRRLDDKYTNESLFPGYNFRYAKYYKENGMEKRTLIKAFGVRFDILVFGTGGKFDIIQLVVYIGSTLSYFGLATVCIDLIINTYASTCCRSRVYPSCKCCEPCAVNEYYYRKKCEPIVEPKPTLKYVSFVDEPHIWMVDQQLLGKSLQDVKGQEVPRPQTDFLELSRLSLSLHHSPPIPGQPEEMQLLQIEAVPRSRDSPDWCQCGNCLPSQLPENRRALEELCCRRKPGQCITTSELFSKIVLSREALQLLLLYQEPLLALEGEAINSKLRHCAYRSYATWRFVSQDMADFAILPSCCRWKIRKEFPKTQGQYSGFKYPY
Assay: Antagonist activity at rat P2X7 receptor expressed in 1321N1 cells assessed as inhibition of Bz-ATP-induced Ca2+ flux after 30 mins by FLIPR assay

IC50: > 10 µM
SMILES: C[C@H]1Cn2c(nnc2-c2cnccn2)C(=O)N1Cc1ccccc1 [US10047092, 79]
